Measurements published in patent EP0575844B1, “Hydroxamic acid derivatives and pharmaceutical compositions thereof” (F. HOFFMANN-LA ROCHE AG, priority 1992, dated 1993).
Read-outs that look alike come from different tables or passages of the source.

How the values were obtained:
gelatinase B = gelatinase B (Homo sapiens, UniProt P14780); assay: biochemical
Experimental: Pro-gelatinase B was purified from human neutrophils by first separating the neutrophils from human blood by density centrifugation and dextran sedimentation. The separated neutrophils were disrupted by combined treatment with 0.05% Triton X-100® and sonification Cell debris was then removed by high speed centrifugation. […] The gelatinase B was incubated overnight at 37°C with 1mM p-aminophenylmercuric acetate. The inhibitory activity of the present hydroxamine derivatives was determined using the synthetic substrate N-acetyl-Pro-Gln-Gly-Leu-Leu-Gly ethyl ester for this enzyme. The gelatinase was added to a solution of 0.25 mM of substrate in 50mM borate buffer (pH 7.5) containing 1 mM calcium chloride and a known concentration of hydroxylamine derivative. The resulting solution was incubated at 37°C for 16 hours. Enzymic activity was terminated by addition of an equal volume of 2% (w/v) sodium hydrogen carbonate solution in 50% aqueous methanol containing 0.05% (w/v) of picrylsulphonic acid. The solution obtained was incubated at 37°C for a further 1 hour and the reaction was then terminated and stabilized by acidification with 1N hydrochloric acid. The concentration of trinitrophenyl-Leu-Leu-Gly ethyl ester formed was determined by spectrophotometry at 335 nm. The IC50 is that concentration of hydroxylamine derivative which reduces substrate cleavage to 50% of that achieved by the enzyme alone.

Stromelysin [1] = biological target: T1, Stromelysin (Homo sapiens, UniProt P08254); assay: Stromelysin (Test A), 14C-acetylated b-casein substrate digestion; format: biochemical; details: read-out: Test A IC50 (mol)
T1 sequence (P08254 100-477): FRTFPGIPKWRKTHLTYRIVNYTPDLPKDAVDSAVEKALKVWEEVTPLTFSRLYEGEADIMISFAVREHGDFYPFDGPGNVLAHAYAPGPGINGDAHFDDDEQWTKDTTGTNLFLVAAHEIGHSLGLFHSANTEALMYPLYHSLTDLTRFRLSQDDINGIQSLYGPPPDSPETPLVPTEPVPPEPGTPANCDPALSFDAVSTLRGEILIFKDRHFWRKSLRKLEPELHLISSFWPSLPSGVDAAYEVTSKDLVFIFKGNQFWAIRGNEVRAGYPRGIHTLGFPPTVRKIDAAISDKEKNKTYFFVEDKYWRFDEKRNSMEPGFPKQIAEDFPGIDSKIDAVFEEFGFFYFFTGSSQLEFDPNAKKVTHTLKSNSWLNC
Experimental: Prostromelysin was purified from human fibroblast culture medium by prostromelysin antibody affinity chromatography [Ganja-Smith Z, Nagase H, Woessner J F Jr., Biochem J. 1989, vol 285 (1), pp 115-119]. The latent pro-enzyme was activated by incubation with trypsin (5 mg/ml) at 25°C for 2 hours and after this time the trypsin was inactivated using a ten-fold excess of soya bean trypsin inhibitor. The inhibitory activity of the aforementioned hydroxamic acid derivatives was determined using ^14C-acetylated b-casein substrate. The stromelysin (5 nM) was added to a solution of substrate (4 mg/ml) in 25 mM Tris HCl buffer, pH 7.5, containing 10 mM CaCl2 and 0.05% Brij®. The solution obtained was incubated at 37°C for 20 hours. Enzyme digestion of the substrate was terminated by the addition of 45% trichloroacetic acid and the precipitated undigested substrate was pelleted by centrifugation at 10000 g for 0.25 hour. The supernatant was aspired and ^14C activity was determined by liquid scintillation spectrometry. The IC50 is that concentration of hydroxamic acid derivative in the enzyme digestion which reduces the substrate cleavage to 50% of that achieved by the enzyme alone.

Stromelysin [2] = biological target: T1, Stromelysin; assay: biochemical
Experimental: The latent pro-enzyme (30 µg/ml) was activated by incubation with trypsin (0.5 µg/ml) for 30 minutes at 25°C and then the trypsin was inactivated using a twenty-fold excess of trypsin inhibitor. The inhibitory activity of the hydroxamic acid derivatives was determined using the fluorescent peptide substrate (7-methoxycoumarin-4-yl)acetyl-L-prolyl-L-leucyl-L-alanyl-L-[…]-[3-(2,4-dinitrophenyl)-L-2,3-diaminopropyl]-L-arginyl-L-arginine. The stromelysin (final concentration 35 ng/ml) was added to a solution of substrate ([…]) and varying concentrations of hydroxylamine derivative in 50mM Tris HCl buffer, pH 7.5 containing 200 mM Na Cl, 10mM CaCl2, 0.05% Brij 35 and 5% methanol. This solution was incubated for 16 hours at 37°C. Product formation was determined by spectrofluorometry using an excitation wavelength of 325 nm and an emission wavelength of 395 nm. The IC50 is that concentration of hydroxylamine derivative which reduces the substrate cleavage to 50% of that achieved by the enzyme alone.

[3] = gelatinase B from human neutrophils, 0.25 mM substrate, pH 7.5, 37°C, 16 hours, * = IC50 limited by mutual depletion of the enzyme, read-out: Test C IC50 (mol)

Chain of gelatinase B (P14780 94-707): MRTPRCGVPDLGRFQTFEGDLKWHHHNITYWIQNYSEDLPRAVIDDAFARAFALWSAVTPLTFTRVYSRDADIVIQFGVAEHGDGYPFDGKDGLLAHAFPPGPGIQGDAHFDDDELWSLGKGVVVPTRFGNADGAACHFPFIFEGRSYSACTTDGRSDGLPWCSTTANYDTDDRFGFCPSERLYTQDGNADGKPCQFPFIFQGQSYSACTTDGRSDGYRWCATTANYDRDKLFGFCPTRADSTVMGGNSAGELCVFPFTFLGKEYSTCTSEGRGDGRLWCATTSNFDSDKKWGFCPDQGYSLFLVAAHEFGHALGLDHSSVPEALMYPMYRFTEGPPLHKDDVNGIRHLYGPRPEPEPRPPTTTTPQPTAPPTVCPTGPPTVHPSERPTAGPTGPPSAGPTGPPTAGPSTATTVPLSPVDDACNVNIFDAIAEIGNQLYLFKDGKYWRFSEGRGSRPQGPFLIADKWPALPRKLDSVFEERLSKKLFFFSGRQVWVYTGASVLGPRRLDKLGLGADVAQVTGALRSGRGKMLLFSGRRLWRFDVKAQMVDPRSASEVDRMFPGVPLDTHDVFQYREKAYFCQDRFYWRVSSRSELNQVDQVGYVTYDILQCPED

| SMILES | IC50 (gelatinase B) [nM] | IC50 (Stromelysin [1]) [nM] | IC50 (Stromelysin [2]) [nM] | IC50 (gelatinase B; [3]) [nM] | IC50 (Stromelysin [2]; stromelysin 35 ng/ml, fluorescent peptide substrate, pH 7.5, 37°C, 16 hours, * = IC50 limited by mutual depletion of the enzyme, read-out: Test B IC50 (mol)) [nM] |
| --- | --- | --- | --- | --- | --- |
| CCCCCCCC(CC(=O)NO)C(=O)N[C@@H](CC(C)C)C(=O)N[C@@H](CC(C)C)C(=O)NCC (single isomer, unassigned) [Compound A, [4-(N-Hydroxyamino)-2(R or S)-heptylsuccinyl]-L-leucyl-L-leucine ethylamide] | 320 | 33 | 12.5 |  |  |
| CCCCCCCCCC(CC(=O)NO)C(=O)N[C@@H](CC(C)C)C(=O)N[C@@H](CC(C)C)C(=O)NCC (single isomer, unassigned) [Compound B, [4-(N-Hydroxyamino)-2(R or S)-nonylsuccinyl]-L-leucyl-L-leucine ethylamide] | 50 | 26 | 9.3 |  |  |
| CCCCCCCC(C(=O)N[C@@H](CC(C)C)C(=O)N[C@@H](CC(C)C)C(=O)NCC)[C@H](C)C(=O)NO (single isomer, unassigned) [Compound C, [4-(N-Hydroxyamino)-2(R or S)-heptyl-3(S)-methylsuccinyl]-L-leucyl-L-leucine ethylamide] |  | 11 | 2.3 |  |  |
| CCCCCCC[C@@H](C(=O)N[C@@H](CC(C)C)C(=O)N[C@@H](CC(C)C)C(=O)NCC)C(CN1C(=O)c2ccccc2C1=O)C(=O)NO (single isomer, unassigned) [Compound D, [4-(N-Hydroxyamino)-2(R)-heptyl-3(R or S)-(phthalimidomethyl)succinyl]-L-leucyl-L-leucine ethylamide] |  | 10 | 0.59 |  |  |
| CCCCCCC[C@@H](C(=O)N[C@H](C(=O)NC)C(C)(C)C)C(CN1C(=O)c2ccccc2C1=O)C(=O)NO (single isomer, unassigned) [Compound G, [4-(N-Hydroxyamino)-2(R)-heptyl-3(R or S)-(phthalimidomethyl)succinyl]-L-tert-butylglycine methylamide] |  |  |  | 0.9 | 1.2 |
| CCCCCCC[C@@H](C(=O)N[C@@H](CC(C)C)C(=O)N[C@@H](CC(C)C)C(=O)NCC)C(CCCc1ccccc1)C(=O)NO (single isomer, unassigned) [Compound H, [4-(N-Hydroxyamino) 2(R)-heptyl-3(R or S)-(3-phenylpropyl)succinyl]-L-leucyl-L-leucine ethylamide] |  |  | 0.66 |  |  |
| CCCCCCCC(CC(=O)NO)C(=O)N[C@@H](Cc1ccccc1)C(=O)NC (stereo partly drawn) [Compound F, [4-(N-Hydroxyamino)-2(RS)-heptylsuccinyl]-L-phenylalanine methylamide] |  |  | 22 | 3.2 |  |
